{
  "source": "patent US20170224852A1",
  "about": "“BENZAZEPIN-1-OL-DERIVED PET LIGANDS WITH HIGH IN VIVO NMDA SPECIFICITY” (ETH ZURICH, priority 2016, published 2017)",
  "key": {"NMDA-rich brain regions [1]": {"biological_target": "T1, NMDA-rich brain regions (Rattus norvegicus, UniProt P35439+Q00960)", "T1 construct": "from tissue; host or cells: brain of living Wistar rats (in vivo PET)", "T1 sequence (Q00960 27-1482, other chains not shown)": "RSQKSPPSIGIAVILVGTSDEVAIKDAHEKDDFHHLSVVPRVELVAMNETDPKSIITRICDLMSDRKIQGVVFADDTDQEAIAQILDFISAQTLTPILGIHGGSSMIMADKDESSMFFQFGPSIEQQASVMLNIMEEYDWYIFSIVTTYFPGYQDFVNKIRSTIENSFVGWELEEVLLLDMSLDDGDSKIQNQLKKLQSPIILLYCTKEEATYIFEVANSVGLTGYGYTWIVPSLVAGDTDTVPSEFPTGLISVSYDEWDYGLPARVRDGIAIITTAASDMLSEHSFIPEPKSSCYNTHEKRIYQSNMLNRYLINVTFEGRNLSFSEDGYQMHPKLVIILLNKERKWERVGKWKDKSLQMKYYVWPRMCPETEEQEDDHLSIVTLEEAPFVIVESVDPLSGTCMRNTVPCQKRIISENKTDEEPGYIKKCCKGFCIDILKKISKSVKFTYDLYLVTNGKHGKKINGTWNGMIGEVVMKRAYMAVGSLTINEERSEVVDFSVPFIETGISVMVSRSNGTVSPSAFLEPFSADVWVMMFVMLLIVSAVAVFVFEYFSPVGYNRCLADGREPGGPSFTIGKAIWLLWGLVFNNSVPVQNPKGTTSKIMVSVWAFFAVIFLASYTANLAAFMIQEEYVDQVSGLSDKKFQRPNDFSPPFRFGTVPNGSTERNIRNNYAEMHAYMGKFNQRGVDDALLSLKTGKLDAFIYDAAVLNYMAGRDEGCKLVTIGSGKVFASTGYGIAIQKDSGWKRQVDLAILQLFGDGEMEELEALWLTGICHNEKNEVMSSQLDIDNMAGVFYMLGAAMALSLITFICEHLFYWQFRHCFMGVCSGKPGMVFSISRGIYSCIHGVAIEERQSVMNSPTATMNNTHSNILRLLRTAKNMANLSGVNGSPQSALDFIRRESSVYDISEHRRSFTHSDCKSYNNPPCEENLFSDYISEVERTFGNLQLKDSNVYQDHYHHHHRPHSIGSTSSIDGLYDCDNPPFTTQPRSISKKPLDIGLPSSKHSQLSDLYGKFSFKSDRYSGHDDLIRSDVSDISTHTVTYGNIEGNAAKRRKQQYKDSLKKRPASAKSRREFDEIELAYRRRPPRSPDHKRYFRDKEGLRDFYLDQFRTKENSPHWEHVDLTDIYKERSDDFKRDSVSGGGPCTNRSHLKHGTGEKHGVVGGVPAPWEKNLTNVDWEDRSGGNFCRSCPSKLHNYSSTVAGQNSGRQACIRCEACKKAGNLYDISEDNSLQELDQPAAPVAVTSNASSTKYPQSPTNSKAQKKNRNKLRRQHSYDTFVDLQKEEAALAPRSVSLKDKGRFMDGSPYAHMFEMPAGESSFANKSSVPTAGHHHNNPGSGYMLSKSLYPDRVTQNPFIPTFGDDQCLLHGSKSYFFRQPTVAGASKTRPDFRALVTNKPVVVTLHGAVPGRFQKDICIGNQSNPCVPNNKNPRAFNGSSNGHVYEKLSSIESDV", "test": "PET scans of rat brain with [11C]WMS1405", "assay_type": "in vivo, Wistar rats", "conditions": "for accumulation in rat brain (PET): i.v. tail vein, 0 to 60 min p.i., baseline", "experimental": "(§1) Wistar rats (331-353 g) were under isoflurane anaesthesia (2.5-5% in oxygen/air 1/1) for all procedures and temperature and respiration were controlled with warm air and by adjusting the isoflurane dosage. A dynamic PET scan was started with a calibrated VISTA eXplore/Super Argus PET/CT scanner (Sedecal, Madrid, Sprain; axial field of view 4.8 cm) and at time zero, 32-52 MBq (0.44-0.78 nmol/kg, 250-300 μL) [^11C]NB1 were injected via a tail vein."}, "GluN1/GluN2B NTD": {"biological_target": "T2, GluN1/GluN2B NTD (Rattus norvegicus, UniProt P35439+Q00960)", "T2 construct": "horizontal rat brain slices (20 μm) of a male Wistar rat; from tissue; host or cells: rat brain slices (male Wistar rat)", "T2 sequence (Q00960 27-1482, other chains not shown)": "as above", "test": "In vitro autoradiography of [11C]NB1 on rat brain slices", "assay_type": "binding", "conditions": "for blocking of [11C]NB1 binding to rat brain slices: 10 μM competitor with 5.4 nM [11C]NB1", "experimental": "After incubation, the slices were washed with HEPES/BSA for 8 min and twice with HEPES buffer for 3 min followed by two 5-second rinses with water. The dried slices were exposed for 20 min to a phosphorimager plate, read in a phosphorimager BAS5000 (Fuji, Tokyo, Japan) and analyzed with the software AIDA v. 4.5 (Raytest Isotopenmessgerate GmbH, Germany)."}, "signal receptor [2]": {"biological_target": "T3, signal receptor (Rattus norvegicus, UniProt Q9R0C9)", "T3 sequence (Q9R0C9 whole entry)": "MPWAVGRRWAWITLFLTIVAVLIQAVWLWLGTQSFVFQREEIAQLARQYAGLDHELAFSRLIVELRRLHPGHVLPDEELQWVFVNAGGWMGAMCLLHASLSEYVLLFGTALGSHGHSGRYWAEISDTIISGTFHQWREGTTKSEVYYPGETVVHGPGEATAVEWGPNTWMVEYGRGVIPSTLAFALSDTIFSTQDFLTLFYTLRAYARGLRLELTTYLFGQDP", "test": "In vitro displacement of [3H](+)pentazocine from rat brain membranes", "assay_type": "binding", "design": "from tissue; host or cells: rat brain membranes", "experimental": "(§2) FIG. 4A. […] One out of three independent experiments. Triplicate incubations with standard deviations. Solid line, fit IC50 function. Upper broken line, binding of 2.9 nM [^3H](+)pentazocine alone. […] Baseline and blockade (circles) as in FIGS. 2B and 2C. Squares, co-injection of 2.5 mg/kg (+)-pentazocine.\nIn vitro binding study with [^3H](+)pentazocine, a ligand for signal receptor."}, "signal receptor [3]": {"biological_target": "signal receptor", "conditions": "read-out: Kd at signal receptor; Lever et al., Synapse 2006; cited from earlier work"}, "NMDA-rich brain regions [4]": {"biological_target": "T1, NMDA-rich brain regions", "test": "PET scans of rat brain with [18F]WMS1410", "assay_type": "in vivo, Wister rat", "experimental": "as §1\nSimilar PET experimental procedure as mentioned above for [^11C]WMS1405 was applied for imaging [^18F]WMS1410 with Wister rat."}, "[5]": {"test_system": "GluN2B(C,D)-containing NMDA receptors", "test": "PET receptor occupancy after eliprodil administration at various doses", "assay_type": "in vivo, rat"}, "[6]": {"conditions": "Garrigou-Cadenne et al. 1995; cited from earlier work"}, "signal receptor [7]": {"biological_target": "T3, signal receptor", "conditions": "co-injection; (+)-pentazocine 2.5 mg/kg, haloperidol 0.13 mg/kg", "experimental": "as §2"}},
  "data": [
    {"smiles": "[11CH3]Oc1ccc2c(c1)CCN(CCCCc1ccccc1)CC2O", "note": "(single isomer, unassigned; stereoisomer b) [Stereoisomer B(+)]", "values": [
      {"measurement": "accumulation in rat brain (PET)", "setting": "NMDA-rich brain regions [1]", "value": "accumulates more than the racemate"}
    ]},
    {"smiles": "C[C@H](NC(c1cccc2[nH]c(=O)c(=O)[nH]c12)P(=O)(O)O)c1ccc(Br)cc1", "note": "(stereo partly shown) [AAM077]", "values": [
      {"measurement": "blocking of [11C]NB1 binding to rat brain slices", "setting": "GluN1/GluN2B NTD", "value": "not"}
    ]},
    {"smiles": "COc1ccc2c(c1)CCN(CCCCc1ccccc1)CC2O", "note": "(stereo not shown) [WMS1405]", "values": [
      {"measurement": "Ki", "setting": "signal receptor [2]; 2.9 nM [3H](+)pentazocine, rat brain membranes", "value": "1000 to 10000", "unit": "nM"},
      {"measurement": "competition for the binding of (+)pentazocine to signal receptor", "setting": "signal receptor [2]; in vitro", "value": "does not compete"}
    ]},
    {"smiles": "CC(C)=CCN1CC[C@]2(C)c3cc(O)ccc3C[C@H]1[C@H]2C", "note": "[[^3H](+)pentazocine]", "values": [
      {"measurement": "Kd", "setting": "signal receptor [3]", "value": 1.6, "unit": "nM"}
    ]},
    {"smiles": "[11CH3]Oc1ccc2c(c1)CCN(CCCCc1ccccc1)CC2O", "note": "(stereo not shown) [[^11C]WMS1405]", "values": [
      {"measurement": "binding to rat brain slices by in vitro autoradiography", "setting": "GluN1/GluN2B NTD; 5.4 nM tracer, 30 min, room temperature, baseline", "value": "high binding in most brain regions"},
      {"measurement": "accumulation in rat brain (PET)", "setting": "NMDA-rich brain regions [1]", "value": "accumulates in NMDA-rich brain regions"}
    ]},
    {"smiles": "OC1CN(CCCCc2ccccc2)CCc2cc(OCC[18F])ccc21", "note": "(stereo not shown) [[^18F]WMS1410]", "values": [
      {"measurement": "accumulation in rat brain (PET)", "setting": "NMDA-rich brain regions [4]; baseline", "value": "accumulates in NMDA-rich brain regions"}
    ]},
    {"smiles": "OC(CN1CCC(Cc2ccc(F)cc2)CC1)c1ccc(Cl)cc1", "note": "(stereo not shown) [eliprodil]", "values": [
      {"measurement": "blocking of [11C]NB1 binding to rat brain slices", "setting": "GluN1/GluN2B NTD", "value": "blocked"},
      {"measurement": "blockade and displacement of [11C]WMS1405 in rat brain (PET)", "setting": "NMDA-rich brain regions [1]; eliprodil 1 mg/kg, displacement 20 min after tracer injection", "value": "blocked and displaced"},
      {"measurement": "blockade of [18F]WMS1410 in rat brain (PET)", "setting": "NMDA-rich brain regions [4]; eliprodil 1 mg/kg co-injection", "value": "blocked"},
      {"measurement": "receptor occupancy", "setting": "[5]; at 70 μg/kg", "value": 99, "unit": "%"},
      {"measurement": "dose for 50% receptor occupancy", "setting": "[5]; brain stem (GluN2B-poor but GluN2D-rich)", "value": 7.7, "unit": "nmol/kg"},
      {"measurement": "dose for 50% receptor occupancy", "setting": "[5]; midbrain (GluN2B-poor but GluN2D-rich)", "value": 6.2, "unit": "nmol/kg"},
      {"measurement": "brain/plasma ratio", "setting": "[6]", "value": "about 20"}
    ]},
    {"smiles": "CC(C)=CCN1CCC2(C)c3cc(O)ccc3CC1C2C", "note": "(stereo not shown) [pentazocine]", "values": [
      {"measurement": "reduction of [11C]WMS1405 binding in vivo", "setting": "signal receptor [7]", "value": "reduced [^11C]WMS1405 binding to similar levels as under blocking conditions with eliprodil"}
    ]}
  ]
}
